In PMC7068720, “Rational Design of Mechanism-Based Inhibitors and Activity-Based Probes for the Identification of Retaining α-L-Arabinofuranosidases” (Journal of the American Chemical Society, 2020):
Where two headings read alike, the source gives them in different places. One block for each molecule: values may come before it.

Assays:
AkAbfB (GH54) = target: T1, AkAbfB (GH54) (Aspergillus luchuensis, UniProt Q8NK89); assay: continuous fluorescence assay, irreversible inhibition kinetics; type: biochemical
T1 construct: gene abfB; pPICZalpha, no purification tag, secreted from Pichia pastoris X-33; EndoH-deglycosylated for MS and crystallography
T1 sequence (Q8NK89 18-499): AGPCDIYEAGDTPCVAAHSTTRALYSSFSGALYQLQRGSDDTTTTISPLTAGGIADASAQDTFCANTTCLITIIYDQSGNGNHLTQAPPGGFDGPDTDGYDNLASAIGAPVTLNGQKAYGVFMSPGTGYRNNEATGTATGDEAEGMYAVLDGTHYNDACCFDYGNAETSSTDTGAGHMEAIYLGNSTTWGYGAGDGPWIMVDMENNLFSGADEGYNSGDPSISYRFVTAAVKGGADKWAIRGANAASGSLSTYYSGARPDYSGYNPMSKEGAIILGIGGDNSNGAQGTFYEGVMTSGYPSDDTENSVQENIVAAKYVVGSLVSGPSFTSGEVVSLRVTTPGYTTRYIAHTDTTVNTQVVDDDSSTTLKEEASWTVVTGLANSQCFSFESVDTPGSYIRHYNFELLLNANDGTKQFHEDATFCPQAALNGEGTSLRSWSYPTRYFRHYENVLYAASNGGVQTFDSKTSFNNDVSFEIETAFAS
From the text: continuous fluorescence assay, irreversible inhibition kinetics on AkAbfB (GH54)

AnAbfA (GH51) = target: T2, AnAbfA (GH51) (Aspergillus niger, UniProt A2Q7E0); assay: as above; type: biochemical
T2 construct: gene abfA; synthetic gene in pPICZalpha (vector fragment amplified from untagged AkAbfB plasmid), secreted from Pichia pastoris X-33
T2 sequence (A2Q7E0 26-628): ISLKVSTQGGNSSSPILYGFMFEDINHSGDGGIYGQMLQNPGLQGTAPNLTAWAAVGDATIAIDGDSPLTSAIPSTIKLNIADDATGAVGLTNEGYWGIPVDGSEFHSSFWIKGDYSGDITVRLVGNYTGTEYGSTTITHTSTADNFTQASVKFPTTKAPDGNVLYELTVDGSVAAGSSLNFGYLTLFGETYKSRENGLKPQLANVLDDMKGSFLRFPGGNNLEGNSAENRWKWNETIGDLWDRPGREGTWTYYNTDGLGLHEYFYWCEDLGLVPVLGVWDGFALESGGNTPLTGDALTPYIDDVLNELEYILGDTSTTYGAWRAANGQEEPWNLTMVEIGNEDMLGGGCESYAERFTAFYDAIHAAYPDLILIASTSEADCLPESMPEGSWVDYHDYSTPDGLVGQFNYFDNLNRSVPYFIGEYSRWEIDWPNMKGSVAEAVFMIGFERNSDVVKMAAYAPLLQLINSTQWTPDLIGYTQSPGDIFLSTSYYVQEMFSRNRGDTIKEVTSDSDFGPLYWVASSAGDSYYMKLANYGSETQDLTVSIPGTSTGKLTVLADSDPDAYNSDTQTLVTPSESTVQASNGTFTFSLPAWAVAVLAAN
From the text: continuous fluorescence assay, irreversible inhibition kinetics on AnAbfA (GH51)

[1] = target: T3, GsGH51 (Geobacillus stearothermophilus abfA) (Geobacillus stearothermophilus, UniProt Q9XBQ3); assay: X-ray crystallography ([…] Å) and intact MS; type: binding; conditions: covalent; nucleophile E294
T3 construct: E. coli BL21(DE3) Gold, pET28a(+), N-terminal TEV-cleavable 6xHis tag removed
T3 sequence (Q9XBQ3 whole entry): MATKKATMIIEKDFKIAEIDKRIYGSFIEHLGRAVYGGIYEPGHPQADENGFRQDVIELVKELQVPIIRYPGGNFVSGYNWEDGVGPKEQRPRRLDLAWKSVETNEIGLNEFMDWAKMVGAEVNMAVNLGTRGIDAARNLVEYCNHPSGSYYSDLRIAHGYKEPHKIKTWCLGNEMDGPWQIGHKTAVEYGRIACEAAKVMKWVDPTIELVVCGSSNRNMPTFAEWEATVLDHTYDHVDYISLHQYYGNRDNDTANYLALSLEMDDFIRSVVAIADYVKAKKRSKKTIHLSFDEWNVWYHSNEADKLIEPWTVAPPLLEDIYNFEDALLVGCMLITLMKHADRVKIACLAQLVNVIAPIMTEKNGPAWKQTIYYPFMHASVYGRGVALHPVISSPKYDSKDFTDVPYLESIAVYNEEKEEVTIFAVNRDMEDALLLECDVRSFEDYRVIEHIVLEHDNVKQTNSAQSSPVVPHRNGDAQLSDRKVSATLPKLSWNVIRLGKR

AbfE (GH51) = target: T4, AbfE (GH51) (Aspergillus niger, UniProt A2QT56); assay: competition with ABP […] pull-down, LC-MS/MS; type: biochemical; conditions: covalent; 0.1 mM inhibitor 1 h, pH 6.5, 37 °C, then ABP 5
T4 construct: gene An09g00880; native secreted protein in arabinan-grown secretome
T4 sequence (A2QT56 32-646): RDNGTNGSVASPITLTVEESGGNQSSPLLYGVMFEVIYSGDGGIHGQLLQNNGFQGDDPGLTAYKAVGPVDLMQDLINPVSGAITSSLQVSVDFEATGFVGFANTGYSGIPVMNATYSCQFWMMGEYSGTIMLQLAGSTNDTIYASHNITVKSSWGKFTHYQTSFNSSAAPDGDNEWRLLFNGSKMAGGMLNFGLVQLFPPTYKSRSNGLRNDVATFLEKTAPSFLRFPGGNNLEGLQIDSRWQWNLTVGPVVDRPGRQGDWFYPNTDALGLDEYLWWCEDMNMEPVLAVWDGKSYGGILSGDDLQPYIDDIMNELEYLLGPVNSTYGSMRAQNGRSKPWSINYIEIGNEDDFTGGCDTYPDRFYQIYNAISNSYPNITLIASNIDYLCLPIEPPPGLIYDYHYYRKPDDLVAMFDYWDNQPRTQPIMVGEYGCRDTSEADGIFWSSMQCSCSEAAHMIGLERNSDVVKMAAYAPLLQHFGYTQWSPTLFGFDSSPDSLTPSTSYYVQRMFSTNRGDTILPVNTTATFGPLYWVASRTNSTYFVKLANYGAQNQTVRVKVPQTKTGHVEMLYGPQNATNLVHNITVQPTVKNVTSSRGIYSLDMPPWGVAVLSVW

AnAbfB (AbfB, GH54) = target: T5, AnAbfB (AbfB, GH54) (Aspergillus niger, UniProt A2R511); assay: competition with ABP […] pull-down, LC-MS/MS; type: biochemical; conditions: covalent; 0.1 mM inhibitor 1 h, pH 6.5, 37 °C, then ABP 5
T5 construct: native secreted glycoprotein in arabinan-grown secretome, ~65 kDa on gel (~60 kDa after PNGaseF)
T5 sequence (A2R511 19-499): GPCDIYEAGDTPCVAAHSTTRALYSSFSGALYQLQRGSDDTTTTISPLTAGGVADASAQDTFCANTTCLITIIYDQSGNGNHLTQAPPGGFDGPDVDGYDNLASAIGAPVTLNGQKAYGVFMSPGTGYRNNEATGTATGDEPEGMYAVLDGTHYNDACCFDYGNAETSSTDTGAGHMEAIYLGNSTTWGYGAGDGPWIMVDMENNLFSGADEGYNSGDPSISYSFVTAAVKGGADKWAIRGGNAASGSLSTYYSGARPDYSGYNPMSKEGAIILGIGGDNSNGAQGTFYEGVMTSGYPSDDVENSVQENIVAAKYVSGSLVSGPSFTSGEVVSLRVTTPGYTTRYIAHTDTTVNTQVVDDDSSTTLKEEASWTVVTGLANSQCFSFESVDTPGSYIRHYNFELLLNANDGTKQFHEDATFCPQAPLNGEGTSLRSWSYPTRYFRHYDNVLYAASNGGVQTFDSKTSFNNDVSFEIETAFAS

[2] = substrate: Cc1cc(=O)oc2cc(O[C@@H]3O[C@@H](CO)[C@H](O)[C@H]3O)ccc12; assay: continuous fluorescence assay, Michaelis-Menten; type: biochemical, Aspergillus luchuensis; conditions: 4-500 μM substrate, 50 mM sodium phosphate pH 7.0, 25 °C
[3] = substrate: Cc1cc(=O)oc2cc(O[C@@H]3O[C@@H](CO)[C@H](O)[C@H]3O)ccc12; assay: continuous fluorescence assay, Michaelis-Menten; type: biochemical, Aspergillus niger; conditions: 4-500 μM substrate, 50 mM sodium phosphate pH 7.0, 25 °C
[4] = read-out: KI; covalent; mechanism-based; 4MU-Araf 100 μM, 50 mM sodium phosphate pH 7.0, 25 °C
[5] = covalent; mechanism-based; 4MU-Araf 100 μM, 50 mM sodium phosphate pH 7.0, 25 °C
[6] = covalent; mechanism-based; 4MU-Araf 100 μM, 50 mM sodium phosphate pH 7.0, 25 °C; read-out: KI
[7] = 4MU-Araf 100 μM, 50 mM sodium phosphate pH 7.0, 25 °C; up to 0.25 mM inhibitor

Molecule: NCCCCCCCCN1[C@@H]2[C@@H](CO)[C@H](O)[C@@H](O)[C@@H]21 (stereo partly shown) [compound 3, inhibitor 3]
KI (inactivation) (AkAbfB (GH54); [4]): 320 ± 40 µM | KI (inactivation) (AnAbfA (GH51); [4]): 210 ± 30 µM

kinact/KI (AkAbfB (GH54); [5]): 240 ± 30 M⁻¹ s⁻¹ | kinact/KI (AnAbfA (GH51); [5]): 160 ± 20 M⁻¹ s⁻¹
Molecule: O=S1(=O)O[C@@H]2[C@@H](CO)[C@H](O)[C@@H](O)[C@@H]2O1 [compound 6, inhibitor 6]
X-ray crystallography (1.40 Å) and intact MS [1]: full occupancy covalent complex between E294, the known catalytic nucleophile, and each inhibitor

Molecule: OC[C@H]1[C@H](O)[C@@H](O)[C@@H]2N[C@H]12 [compound 2, inhibitor 2]
KI (inactivation) (AkAbfB (GH54); [6]): 320 ± 50 µM | X-ray crystallography (1.40 Å) and intact MS [1]: full occupancy covalent complex between E294, the known catalytic nucleophile, and each inhibitor | KI (inactivation) (AnAbfA (GH51); [6]): 140 ± 20 µM | competition with ABP 5 pull-down, LC-MS/MS (AbfE (GH51)): significantly reduced signal for peptides from AbfA, AbfB, and AbfE | competition with ABP 5 pull-down, LC-MS/MS (AnAbfB (AbfB, GH54)): significantly reduced signal for peptides from AbfA, AbfB, and AbfE

kinact/KI (AkAbfB (GH54); [7]): < 0.1 M⁻¹ s⁻¹ | kinact/KI (AnAbfA (GH51); [7]): < 0.1 M⁻¹ s⁻¹
Molecule: OC[C@H]1[C@H](O)[C@@H](O)[C@@H]2O[C@H]12 [compound 1]

B1: AkAbfB (GH54) (Aspergillus luchuensis IFO 4308) (protein)
chain: T1 sequence (Q8NK89 18-499)
notes: pPICZalpha, no purification tag, secreted from Pichia pastoris X-33; EndoH-deglycosylated for MS and crystallography
Km [2]: 390 ± 30 µM | kcat [2]: 3.5 ± 0.167 s⁻¹

B2: AnAbfA (GH51) (Aspergillus niger CBS 513.88) (protein)
chain: T2 sequence (A2Q7E0 26-628)
notes: synthetic gene in pPICZalpha (vector fragment amplified from untagged AkAbfB plasmid), secreted from Pichia pastoris X-33
Km [3]: 240 ± 20 µM | kcat [3]: 2.17 ± 0.167 s⁻¹
